EP4810052A2, “HCRHR2 SELECTIVE POLYPEPTIDES” (Gubra A/S, priority 2023, dated 2026)
Starred links: 1 amine or outer side, 2 acyl side, 3 side chain; linkers in the order of their positions; H or OH if unused. Non-standard residues stand in square brackets, D forms with d. Residues, ends and D or L forms follow the SMILES beside them. Groups on a side chain read outwards from the residue. *: point of attachment. C20 diacid = O=C(O)CCCCCCCCCCCCCCCCCCC(=O)*; γGlu = O=C(O)[C@H](CCC(=O)[*:2])N[*:1]; NMeI = CC[C@H](C)[C@H](NC)C(=O)O; AEEA = NCCOCCOCC(=O)O

Experiments:
hCRHR1 = target: T1, hCRHR1 (Homo sapiens, UniProt P34998); experiment: cAMP potency, transiently transfected CHO-K1 cells, hCRHR1; format: cell-based; design: DYK (FLAG); host or cells: CHO-K1, transiently transfected; settings: transiently transfected CHO-K1, average n=3; read-out: Transient cell system EC50 (nM) hCR HR1
T1 sequence (P34998 24-415): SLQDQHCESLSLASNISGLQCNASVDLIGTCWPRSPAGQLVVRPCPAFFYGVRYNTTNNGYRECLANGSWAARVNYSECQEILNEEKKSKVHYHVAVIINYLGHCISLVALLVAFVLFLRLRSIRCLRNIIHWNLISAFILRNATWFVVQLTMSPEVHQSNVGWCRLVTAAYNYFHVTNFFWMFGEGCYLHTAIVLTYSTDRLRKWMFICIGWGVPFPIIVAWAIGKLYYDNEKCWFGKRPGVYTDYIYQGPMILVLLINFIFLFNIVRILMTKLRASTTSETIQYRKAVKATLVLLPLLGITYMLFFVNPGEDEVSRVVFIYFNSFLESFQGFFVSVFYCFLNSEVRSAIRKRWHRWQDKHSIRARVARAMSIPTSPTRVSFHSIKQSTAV

[1] = Body mass and body fat content in mouse model of diet-induced obesity (DIO); format: in vivo; settings: DIO mice; for Blood HbA1c / M. Gastrocnemius / M. Soleus / Body weight at termination / Fat mass change from baseline / Lean mass change from baseline / Relative body weight change at termination: Table 17 study; for Body weight at termination / Fat mass change from baseline / Lean mass change from baseline / Relative body weight change at termination: ± SEM
Description: SEQ ID NO: 3, SEQ ID NO: 6, SEQ ID NO: 238, SEQ ID NO: 16 and SEQ ID NO: 215 were assessed for their ability to reduce body mass and body fat content in a mouse model of diet-induced obesity (DIO).
Male C57BL/6JRj mice were obtained from JanVier (JanVier Labs, France) at 5 weeks of age. The animals were group-housed during obesity induction and then single housed 2 weeks prior to study start. They were housed under a 12/12 h dark-light cycle, light off at 3 PM. Room temperature was controlled to 22°C ± 1°C, with 60 % ± 20% humidity. For 22-23 weeks prior to treatment start and throughout the study, the animals had ad libitum access to high-fat diet (60% kcal fat, D12492, Research Diets) and tap water.
The animals were randomized according to lean mass (EchoMRI) and body weight. Animals were dosed subcutaneously […] for 30-32 days. In study 1, the animals were dosed with vehicle or SEQ ID NO: 3 (10, 30, 60 or 100 nmol/kg). In study 2, the animals were dosed with vehicle or SEQ ID NO: 6 (10 or 30 nmol/kg), SEQ ID NO: 238 (10 or 30 nmol/kg), SEQ ID NO: 16 (10 or 30 nmol/kg), SEQ ID NO: 215 (10 or 30 nmol/kg) or SEQ ID NO: 3 (30 nmol/kg).
Body weight and food intake were recorded daily until day 28 and body composition evaluated on day 26 using EchoMRI. At termination, blood for HbA1c analyses were collected and M. gastrocnemius and M. soleus were weighed.
Statistical significance was evaluated using One-way analysis of variance with Dunnett's multiple comparison test. P < 0.05 was considered statistically significant.

hCRHR2b = target: T2, hCRHR2b (Homo sapiens, UniProt Q13324); experiment: cAMP potency, transiently transfected CHO-K1 cells, hCRHR2b; format: cell-based; settings: transiently transfected CHO-K1, average n=3; read-out: Transient cell system EC50 (nM) hCRHR 2b
T2 construct: DYK (FLAG); host or cells: CHO-K1, transiently transfected
T2 sequence (Q13324 1-438 isoform Q13324-2): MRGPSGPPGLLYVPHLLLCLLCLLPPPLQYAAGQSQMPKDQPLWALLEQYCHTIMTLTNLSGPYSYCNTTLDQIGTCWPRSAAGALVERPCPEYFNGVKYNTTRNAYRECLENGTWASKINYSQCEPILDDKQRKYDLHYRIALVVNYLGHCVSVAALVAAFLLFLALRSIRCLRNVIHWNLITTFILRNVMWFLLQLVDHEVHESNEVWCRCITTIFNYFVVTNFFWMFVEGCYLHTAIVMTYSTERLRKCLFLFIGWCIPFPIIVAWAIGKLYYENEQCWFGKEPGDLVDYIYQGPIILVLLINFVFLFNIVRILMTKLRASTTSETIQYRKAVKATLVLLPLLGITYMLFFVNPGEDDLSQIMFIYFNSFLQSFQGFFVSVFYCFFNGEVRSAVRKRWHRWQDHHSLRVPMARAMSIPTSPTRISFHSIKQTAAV

mCRHR2 = target: T3, mCRHR2 (Mus musculus, UniProt Q60748); experiment: cAMP potency, transiently transfected CHO-K1 cells, mCRHR2; format: cell-based; settings: transiently transfected CHO-K1, average n=3; read-out: Transient cell system EC50 (nM) mCRH R2
T3 construct: DYK (FLAG); host or cells: CHO-K1, transiently transfected
T3 sequence (Q60748 1-431 isoform Q60748-2): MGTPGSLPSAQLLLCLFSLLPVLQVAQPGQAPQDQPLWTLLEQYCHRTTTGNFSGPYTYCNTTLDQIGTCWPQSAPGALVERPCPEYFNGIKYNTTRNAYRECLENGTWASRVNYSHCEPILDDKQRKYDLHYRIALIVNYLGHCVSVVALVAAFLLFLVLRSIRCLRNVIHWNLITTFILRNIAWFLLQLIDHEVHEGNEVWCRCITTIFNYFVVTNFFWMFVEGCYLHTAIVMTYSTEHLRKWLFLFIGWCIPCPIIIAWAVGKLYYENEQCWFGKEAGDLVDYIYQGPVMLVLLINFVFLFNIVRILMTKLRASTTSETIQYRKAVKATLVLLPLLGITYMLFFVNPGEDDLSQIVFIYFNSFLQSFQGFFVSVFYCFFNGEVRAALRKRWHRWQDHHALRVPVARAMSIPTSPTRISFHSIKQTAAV
Description: Selected peptides were tested for potency on different species (mouse, rat, porcine) using transiently transfected CHO-K1 cells using the general procedure.

hCRHR2a = target: T4, hCRHR2a (Homo sapiens, UniProt Q13324); experiment: cAMP potency, transiently transfected CHO-K1 cells, hCRHR2a; format: cell-based; settings: transiently transfected CHO-K1, average n=3; read-out: Transient cell system EC50 (nM) hCRHR 2a
T4 construct: DYK (FLAG); host or cells: CHO-K1, transiently transfected
T4 sequence (Q13324 1-411): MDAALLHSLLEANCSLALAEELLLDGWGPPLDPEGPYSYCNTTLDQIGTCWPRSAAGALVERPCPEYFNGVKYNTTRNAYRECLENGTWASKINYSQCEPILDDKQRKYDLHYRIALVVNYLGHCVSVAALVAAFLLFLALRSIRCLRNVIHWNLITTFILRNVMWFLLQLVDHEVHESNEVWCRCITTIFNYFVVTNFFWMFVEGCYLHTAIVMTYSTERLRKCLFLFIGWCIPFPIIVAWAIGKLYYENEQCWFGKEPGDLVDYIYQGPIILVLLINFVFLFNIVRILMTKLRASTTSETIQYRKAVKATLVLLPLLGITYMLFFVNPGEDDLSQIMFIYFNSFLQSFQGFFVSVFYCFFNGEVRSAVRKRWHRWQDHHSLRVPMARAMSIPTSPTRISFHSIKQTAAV

**Q.** Which EC50 (hCRHR1) does the source give for `CC[C@H](C)[C@H](NC)C(=O)N[C@H](C(=O)N[C@@H](CC(C)C)C(=O)N[C@@H](CO)C(=O)N[C@@H](CC(C)C)C(=O)N[C@@H](CC(=O)O)C(=O)N[C@H](C(=O)N1CCC[C@H]1C(=O)N[C@H](C(=O)NCC(=O)N[C@@H](CC(C)C)C(=O)N[C@@H](CC(C)C)C(=O)N[C@@H](CCC(N)=O)C(=O)N[C@H](C(=O)N[C@@H](CC(C)C)C(=O)N[C@@H](CC(C)C)C(=O)N[C@@H](CCC(=O)O)C(=O)N[C@@H](CCC(N)=O)C(=O)N[C@@H](C)C(=O)N[C@@H](CCCNC(=N)N)C(=O)N[C@@H](C)C(=O)N[C@@H](CCCNC(=N)N)C(=O)N[C@@H](C)C(=O)N[C@@H](C)C(=O)N[C@@H](CCCNC(=N)N)C(=O)N[C@@H](CCC(=O)O)C(=O)N[C@@H](CCC(N)=O)C(=O)N[C@@H](C)C(=O)N[C@H](C(=O)N[C@@H](CCCCNC(=O)COCCOCCNC(=O)COCCOCCNC(=O)CC[C@H](NC(=O)CC[C@H](NC(=O)CCCCCCCCCCCCCCCCCCC(=O)O)C(=O)O)C(=O)O)C(=O)N[C@@H](CC(N)=O)C(=O)N[C@@H](C)C(=O)N[C@@H](CCC(=O)O)C(=O)N[C@H](C(=O)N[C@@H](CC(C)C)C(=O)N[C@@H](C)C(=O)N[C@@H](CCC(=O)O)C(=O)N[C@H](C(N)=O)C(C)C)[C@@H](C)CC)[C@@H](C)O)[C@@H](C)CC)[C@@H](C)CC)C(C)C)C(C)C` [SEQ ID NO: 6] (H-[NMeI]VLSLDVPIGLLQILLEQARARAAREQATK([AEEA-AEEA-γGlu-γGlu-C20 diacid])NAEILAEV-NH2) here?
**A.** > 1000 nM

**Q.** What about the relative body weight ([1]; 28 days, compared to vehicle) of the same compound?
**A.** prolonged dose-dependent reduction

**Q.** And the “Blood HbA1c” value ([1]; 10 nmol/kg)?
**A.** 4.0 ± 0.1 %

**Q.** And the “M. Gastrocnemius” value ([1]; 10 nmol/kg)?
**A.** 0.18 ± 0.004 g

**Q.** And the “M. Soleus” value ([1]; 10 nmol/kg)?
**A.** 0.012 ± 0.0008 g

**Q.** And the “Body weight at termination” value ([1]; 10 nmol/kg)?
**A.** 42.6 ± 1.3 g

**Q.** And the “Fat mass change from baseline” value ([1]; 10 nmol/kg)?
**A.** -7.0 ± 0.9 g

**Q.** And the “Lean mass change from baseline” value ([1]; 10 nmol/kg)?
**A.** 0.1 ± 0.3 g

**Q.** And the “Relative body weight change at termination” value ([1]; 10 nmol/kg)?
**A.** 89.1 ± 2.0 %

**Q.** What about the “Blood HbA1c” value ([1]; 30 nmol/kg) of the same compound?
**A.** 4.1 ± 0.1 %

**Q.** And the “M. Gastrocnemius” value ([1]; 30 nmol/kg)?
**A.** 0.18 ± 0.001 g

**Q.** What about the “M. Soleus” value ([1]; 30 nmol/kg) of the same compound?
**A.** 0.013 ± 0.0004 g

**Q.** What about the “Body weight at termination” value ([1]; 30 nmol/kg) of the same compound?
**A.** 38 ± 0.5 g

**Q.** And the “Fat mass change from baseline” value ([1]; 30 nmol/kg)?
**A.** -10.7 ± 0.5 g

**Q.** What about the “Lean mass change from baseline” value ([1]; 30 nmol/kg) of the same compound?
**A.** -0.1 ± 0.3 g

**Q.** What about the “Relative body weight change at termination” value ([1]; 30 nmol/kg) of the same compound?
**A.** 79.3 ± 1.2 %

**Q.** And the EC50 (hCRHR2b)?
**A.** 0.015 nM

**Q.** What about the EC50 (mCRHR2) of the same compound?
**A.** 0.0043 nM

**Q.** And the EC50 (hCRHR2a)?
**A.** 0.023 nM
